How the values were obtained:
[1] = Measurement of absorbance and fluorescence of synthesized compound in ethanol; type: physicochemical; details: 10 μM in ethanol; for λem: Maximum emission wavelength / λex: Maximum excitation wavelength: average of three measurements; for Stokes shift: difference between excitation and emission
Procedure: In order to investigate the optical properties of the newly synthesized compound in the present invention, the absorbance was measured using a V-730 UV-visible spectrophotometer manufactured by JASCO, and fluorescence was measured using a FlexStation 3 multi-mode microplate reader manufactured by Molecular Devices. Absorbance and fluorescence were measured three times at a concentration of 10 μM in ethanol, and the average thereof is shown in Table 1 below. At this time, T807 (AV-1451) as a Tau positron-emission-tomography (PET) tracer and Thioflavin S, which are commercially available to detect tau production in vivo, were used as a control group.

[2] = biological target: T1, tau aggregates (Tau-K18 protein) (Homo sapiens, UniProt P10636); test: In vitro binding assay (fluorescence labeling ability) to tau aggregates; details: for SIaβ: selectivity index = fluorescence intensity of probe bound to Tau aggregate / bound to Aβ aggregate / SItaumono: selectivity index, tau aggregate versus tau monomer / FItau: fold increase = fluorescence intensity of probe bound to tau aggregate / probe (free): compound 10 μM; for FItau: fold increase = fluorescence intensity of probe bound to tau aggregate / probe (free): PBS, 30 min incubation; for selectivity for tau aggregates over amyloid aggregates: in vitro screening as fluorescent probes
T1 construct: aggregation of Tau-K18 protein (0.5 mg/ml in PBS) purified and isolated from E. coli; made in house; host or cells: E. coli
Procedure: (§1) Experimental Example 2-1: Tau and amyloid beta aggregation induction For amyloid aggregation induction, the synthesized Abeta40 (Amyloid Beta 40) peptide was dissolved in PBS at a concentration of 0.5 mg/ml to induce aggregation for 7 days at 37° C. and 200 rpm with shaking. To induce aggregation of tau proteins, aggregation of Tau-K18 protein (0.5 mg/ml in PBS) purified and isolated from E. coli with heparin (0.1 mg/ml) and DTT (100 μM) was induced at 37° C. and 200 rpm for 7 days under shaking conditions. […] At this time, thioflavin S (Th S), which is known to bind to beta-sheet structures such as tau and amyloid aggregates, was used as a control group (Ex: 430 nm, Em: 480-610 nm). Specifically, in order to determine the labeling ability of newly synthesized compounds to tau aggregate proteins, a 25 μl dilution of a 10 μM labeling substance in PBS and 25 id of a 0.125 mg/ml tau or amyloid pre-aggregate or aggregate diluted in PBS were each incubated for 30 minutes, and then a fluorescence spectrum reaction was measured using a spectrophotometer. Selectivity analysis for tau aggregates and amyloid beta aggregates of the novel synthetic compounds of the present invention was performed as described above, and the resulting in vitro fluorescence changes are summarized in Table 2 and FIG. 1 below.

[3] = biological target: T2, amyloid beta aggregates (Abeta40) (Homo sapiens, UniProt P05067); test: In vitro binding assay (fluorescence labeling ability) to amyloid beta aggregates; details: compound 10 μM, PBS, 30 min incubation
T2 construct: the synthesized Abeta40 (Amyloid Beta 40) peptide was dissolved in PBS; host or cells: synthetic peptide
Procedure: as §1

[4] = biological target: bovine serum albumin (BSA) (Bos taurus, UniProt P02769); test: Measurement of non-specific binding using BSA; details: compound 10 μM, 0.25 mg/ml BSA, 30 min incubation
Procedure: In order to exclude non-specific binding of the compound to serum, reactivity between the compound and bovine serum albumin (BSA) was further tested. 25 μl of a 10 μM compound was incubated along with 25 μl of 0.25 mg/ml BSA for 30 minutes, and then the fluorescence spectrum reaction was measured using a spectrophotometer. The BSA response was conducted to identify non-selective binding to other proteins in the blood when applied to patients as an imaging agent.

T1 sequence (P10636 561-685 limits assumed): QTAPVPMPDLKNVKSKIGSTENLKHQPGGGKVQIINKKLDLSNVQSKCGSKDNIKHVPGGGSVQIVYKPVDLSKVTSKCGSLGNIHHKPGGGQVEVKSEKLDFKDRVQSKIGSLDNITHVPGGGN
bovine serum albumin (BSA), sequence (P02769 25-607): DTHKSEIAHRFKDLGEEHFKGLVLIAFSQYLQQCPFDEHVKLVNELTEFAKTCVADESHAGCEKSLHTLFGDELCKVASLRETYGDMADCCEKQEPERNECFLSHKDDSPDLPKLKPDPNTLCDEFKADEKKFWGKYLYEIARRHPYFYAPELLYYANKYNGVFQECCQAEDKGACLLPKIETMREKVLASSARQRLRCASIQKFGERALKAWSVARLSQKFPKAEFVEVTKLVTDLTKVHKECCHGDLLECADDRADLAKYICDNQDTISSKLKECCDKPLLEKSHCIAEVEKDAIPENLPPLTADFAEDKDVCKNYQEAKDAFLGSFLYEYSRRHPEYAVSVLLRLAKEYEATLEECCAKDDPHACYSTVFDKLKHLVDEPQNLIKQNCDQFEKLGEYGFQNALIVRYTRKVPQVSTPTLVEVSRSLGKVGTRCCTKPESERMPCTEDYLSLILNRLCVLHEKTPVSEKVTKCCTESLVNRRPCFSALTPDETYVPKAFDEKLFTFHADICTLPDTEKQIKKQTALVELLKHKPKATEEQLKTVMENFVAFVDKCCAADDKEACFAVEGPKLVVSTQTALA
T2 sequence (P05067 672-711 limits assumed): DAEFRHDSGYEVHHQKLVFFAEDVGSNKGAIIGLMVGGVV

Structure (SMILES)	λem: Maximum emission wavelength [1]	λex: Maximum excitation wavelength [1]	Stokes shift [1]	SIaβ: selectivity index = fluorescence intensity of probe bound to Tau aggregate / bound to Aβ aggregate [2]	SItaumono: selectivity index, tau aggregate versus tau monomer [2]	FItau: fold increase = fluorescence intensity of probe bound to tau aggregate / probe (free) [2]	selectivity for tau aggregates over amyloid aggregates [2]	FIAβ: fold increase = fluorescence intensity of probe bound to Aβ aggregate / probe (free) [3]	FIBSA: fold increase = fluorescence intensity of probe bound to BSA / probe (free) [4]
COc1ccc2nc(/C=C/C(=O)c3ccc(N(C)C)cc3)ccc2c1 [Compound 13a, (E)-1-(4-(dimethylamino)phenyl)-3-(6-methoxyquinolin-2-yl)prop-2-en-1-one]	601 nm	339 nm	202 nm	4.6	5.2	5.12	4.6 times	1.10	1.23
Nc1ccc(C(=O)/C=C/c2ccc3cc(O)ccc3n2)cc1 [Compound 13c, (E)-1-(4-aminophenyl)-3-(6-hydroxyquinolin-2-yl)prop-2-en-1-one]	570 nm	378 nm	192 nm	2.8	3.2	4.63	–	1.67	1.72
COc1ccc2nc(/C=C/C(=O)c3ccc(C)cc3)ccc2c1 [Compound 13d, (E)-1-(4-tolyl)-3-(6-methoxyquinolin-2-yl)prop-2-en-1-one]	454 nm	314 nm	140 nm	3.2	4.8	6.05	–	1.88	1.57
COc1ccc2nc(/C=C/C(=O)c3ccc(Br)cc3)ccc2c1 [Compound 13e, (E)-1-(4-bromophenyl)-3-(6-methoxyquinolin-2-yl)prop-2-en-1-one]	415 nm	314 nm	101 nm	3.8	2.2	5.18	3.8 times	1.37	1.39
Fc1ccc(-c2ccc3c(c2)[nH]c2ccncc23)cn1 [Compound T807, reference compound]	369 nm	304 nm	65 nm	–	–	–	–	–	–

The next lines start with the values.

λem: Maximum emission wavelength [1]	λex: Maximum excitation wavelength [1]	Stokes shift [1]	SIaβ: selectivity index = fluorescence intensity of probe bound to Tau aggregate / bound to Aβ aggregate [2]	SItaumono: selectivity index, tau aggregate versus tau monomer [2]	FItau: fold increase = fluorescence intensity of probe bound to tau aggregate / probe (free) [2]	selectivity for tau aggregates over amyloid aggregates [2]	FIAβ: fold increase = fluorescence intensity of probe bound to Aβ aggregate / probe (free) [3]	FIBSA: fold increase = fluorescence intensity of probe bound to BSA / probe (free) [4]	Structure (SMILES)
415 nm	359 nm	56 nm	1.9	2.0	1.01	–	0.54	0.60	COc1ccc2nc(/C=C/c3ccc(C(F)(F)F)cc3)ccc2c1 [Compound 14a, (E)-6-methoxy-2-(4-(trifluoromethyl)styryl)quinolone]
420 nm	357 nm	63 nm	1.4	1.3	0.79	–	0.57	0.61	COc1ccc2nc(/C=C/c3ccncc3)ccc2c1 [Compound 14b, (E)-6-methoxy-2-(2-(pyridin-4-yl)vinyl)quinolone]
602 nm	400 nm	202 nm	2.0	3.6	0.63	–	0.32	0.26	CNc1ccc(/C=C/C=C/c2ccc3cc(OC)ccc3n2)cc1 [Compound 15b, 4-((1E,3E)-4-(6-methoxyquinolin-2-yl)buta-1,3-dien-1-yl)-N-methylanaline]
600 nm	399 nm	201 nm	1.2	3.9	0.81	–	0.18	0.19	COc1ccc2nc(/C=C/C=C/c3ccc(N(C)C)cc3)ccc2c1 [Compound 15c, 4-((1E,3E)-4-(6-methoxyquinolin-2-yl)buta-1,3-dien-1-yl)-N,N-dimethylaniline]
520 nm	402 nm	118 nm	1.1	1.3	1.33	–	1.25	1.05	COc1ccc2nc(/C=C/C=C/c3ccc(N(C)C)nc3)ccc2c1 [Compound 15d, 5-((1E,3E)-4-(6-methoxyquinolin-2-yl)buta-1,3-dien-1-yl)-N,N-dimethylpyridin-2-amine]
587 nm	389 nm	198 nm	2.2	4.5	0.95	–	0.44	0.17	COc1ccc2nc(/C=C/C=C/c3ccc([N+](=O)[O-])nc3)ccc2c1 [Compound 15e, 6-methoxy-2-((1E,3E)-4-(6-nitropyridin-3-yl)buta-1,3-dien-1-yl)quinolone]
415 nm	360 nm	55 nm	1.2	4.4	3.91	–	3.27	1.75	COc1ccc2nc(/C=C/C=C/c3cccc(Cl)c3)ccc2c1 [Compound 15f, 6-methoxy-2-((1E,3E)-4-(3-chlorophenyl)buta-1,3-dien-1-yl)quinolone]
